Laboratory results: ChEMBL document CHEMBL1201862, “PubChem BioAssay data set” (2004)
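Five compound concentrations were applied to cells in 96-well plates for 48 hours; endpoints were derived by simple linear interpolation of the resulting dose-response curve. GI50 is the concentration that inhibits growth by half.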 Calls of active or inactive are those of the source. Cut-off read from the data, not from the text of the source: active = GI50 up to about 1.1 µM and inactive = higher.

Assays:
Test in all cases: NCI tumour cell line growth inhibition, 48 h
COLO 205 = system: COLO 205
UO-31 = system: UO-31
CCRF-CEM = system: CCRF-CEM
RPMI-8226 = system: RPMI-8226
SNB-19 = system: SNB-19
HCC 2998 = system: HCC 2998
UACC-257 = system: UACC-257
786-0 = system: 786-0
RXF 393 = system: RXF 393
DLD-1 = system: DLD-1
OVCAR-4 = system: OVCAR-4
SF-539 = system: SF-539
HL-60 = system: HL-60
OVCAR-8 = system: OVCAR-8
IGROV-1 = system: IGROV-1
HOP-92 = system: HOP-92

Measured: GI50

CCOC(=O)C(C)(C)Oc1ccc2c(-c3ccc(Cl)cc3)c(-c3ccc(Cl)cc3)c(=O)oc2c1
inactive: COLO 205 > 100 µM | UO-31 > 100 µM | CCRF-CEM > 100 µM | RPMI-8226 80 µM | SNB-19 > 100 µM | HCC 2998 > 100 µM | UACC-257 > 100 µM | 786-0 > 100 µM | RXF 393 93.8 µM | DLD-1 > 100 µM | OVCAR-4 > 100 µM | SF-539 > 100 µM | HL-60 68.7 µM | OVCAR-8 > 100 µM | IGROV-1 > 100 µM

CC1(OCc2ccccc2)C(=O)N2C1N(C(=O)OCc1ccccc1)CC2(C)C (configuration not stated)
inactive: COLO 205 94.6 µM | UO-31 31.4 µM | CCRF-CEM 35.1 µM | RPMI-8226 27.5 µM | SNB-19 54.2 µM | HCC 2998 > 100 µM | UACC-257 36.6 µM | 786-0 > 100 µM | RXF 393 67.5 µM | DLD-1 54.3 µM | OVCAR-4 > 100 µM | SF-539 > 100 µM | HL-60 29.4 µM | OVCAR-8 34.8 µM | IGROV-1 57.3 µM

CCOC(=O)C(C)(C)Oc1ccc2c(-c3ccccc3)cc(=O)oc2c1
inactive: COLO 205 21.6 µM | UO-31 23 µM | CCRF-CEM 21.7 µM | RPMI-8226 18.1 µM | SNB-19 42.1 µM | HCC 2998 98.4 µM | UACC-257 28.7 µM | 786-0 33.7 µM | DLD-1 25.3 µM | OVCAR-4 35.4 µM | SF-539 31.8 µM | HL-60 20.1 µM | OVCAR-8 37.1 µM | IGROV-1 25.1 µM

CC(=O)N1CCC2(C=Nc3ccccc32)CC1
inactive: COLO 205 > 100 µM | CCRF-CEM > 100 µM | RPMI-8226 > 100 µM | HOP-92 > 100 µM | HCC 2998 > 100 µM | UACC-257 > 100 µM | 786-0 > 100 µM | DLD-1 > 100 µM | OVCAR-4 > 100 µM | SF-539 > 100 µM | HL-60 > 100 µM | OVCAR-8 > 100 µM | IGROV-1 > 100 µM

CN(C)CCNC(=O)c1cccc2c1nc(-c1ccc(F)cc1)c1ccccc12
inactive: COLO 205 3.21 µM | UO-31 1.64 µM | CCRF-CEM 1.97 µM | SNB-19 6.93 µM | HOP-92 2.45 µM | HCC 2998 3.34 µM | UACC-257 2.95 µM | 786-0 4.65 µM | RXF 393 3.2 µM | DLD-1 2.45 µM | OVCAR-4 5.94 µM | SF-539 3.63 µM | HL-60 1.22 µM | OVCAR-8 4.33 µM | IGROV-1 2.84 µM
